In article PMC7251097, “Aspartate/asparagine-β-hydroxylase: a high-throughput mass spectrometric assay for discovery of small molecule inhibitors” (Scientific Reports, 2020):
Where a name gives a salt, the structure may show the parent alone. Read-outs that look alike come from different tables or passages of the source. Each block holds one compound with its values, some of them ahead of it.

Target: T1, His6-AspH315–758 (human aspartate/asparagine-β-hydroxylase, AspH) (Homo sapiens, UniProt Q12797)
T1 construct: N-Terminally His6-tagged human AspH315–758 (His6-AspH315–758) was produced in E. coli BL21 (DE3) cells; made in house; host or cells: E. coli BL21 (DE3), pET-28a(+) vector
T1 sequence (Q12797 315-758): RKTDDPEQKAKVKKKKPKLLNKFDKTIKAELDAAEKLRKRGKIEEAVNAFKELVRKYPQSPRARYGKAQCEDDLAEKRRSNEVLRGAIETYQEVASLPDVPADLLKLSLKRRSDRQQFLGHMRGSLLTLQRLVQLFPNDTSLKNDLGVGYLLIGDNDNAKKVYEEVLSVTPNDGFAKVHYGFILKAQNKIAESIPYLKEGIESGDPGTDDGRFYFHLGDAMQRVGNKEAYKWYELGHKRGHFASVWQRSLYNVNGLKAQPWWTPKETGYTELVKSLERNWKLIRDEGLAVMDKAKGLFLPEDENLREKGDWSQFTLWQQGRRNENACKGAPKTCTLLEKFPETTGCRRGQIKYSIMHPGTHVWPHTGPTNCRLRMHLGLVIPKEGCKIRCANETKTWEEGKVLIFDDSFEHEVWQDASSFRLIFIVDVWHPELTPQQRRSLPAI
Experiment: SPE-MS AspH inhibition assay (LOPAC screen at fixed 20 μM and IC50 dose-response), hydroxylation of cyclic peptide hFX-CP101–119
Assay type: biochemical

[1] = LOPAC Plate 4, compound at 20 uM, substrate conversion
[2] = LOPAC Plate 4, compound at 20 uM, read-out: % inhibition
[3] = LOPAC compound at 20uM, plate 3, conversion of substrate peptide

SMILES: CCCCCCCCCCCCCC(=O)O[C@@H]1[C@@H](C)[C@@]2(O)[C@@H](C=C(CO)C[C@]3(O)C(=O)C(C)=C[C@@H]23)[C@@H]2C(C)(C)[C@]12OC(C)=O [Phorbol 12-myristate 13-acetate]
% conversion: 39.27%

SMILES: O=C(O)CP(=O)(O)O [Phosphonoacetic acid]
% conversion [1]: 17.53%
inhibition at 20 µM [2]: 55.5%

SMILES: CC(C)C[C@H](NP(=O)([O-])O[C@H]1O[C@H](C)[C@@H](O)[C@H](O)[C@@H]1O)C(=O)N[C@@H](Cc1c[nH]c2ccccc12)C(=O)[O-].[Na+].[Na+] [Phosphoramidon disodium]
% conversion: 33.86%

SMILES: Oc1cc(O)cc(/C=C/c2ccc(O)c(O)c2)c1 [Piceatannol, reference compound]
inhibition at 20 µM (AspH activity, fixed compound concentration 20 μM, initial LOPAC screen, 0.5%v/v DMSO, read-out: Inhibition at 20 µM [%]): 99.9%
Plate 3 (% conversion) [3]: 2.48%

SMILES: COc1ccc(C(=O)NCc2cccnc2)cc1C(=O)NCc1cccnc1 [Picotamide]
% conversion [1]: 30.17%

SMILES: NS(=O)(=O)C#Cc1ccccc1 [Pifithrin-mu]
% conversion [1]: 31.04%

SMILES: CC(N/C(=N\C#N)Nc1ccncc1)C(C)(C)C (centres unmarked) [Pinacidil]
% conversion [1]: 37.72%

SMILES: COc1cc(/C=C/C(=O)N2CCC=CC2=O)cc(OC)c1OC [Piperlongumine]
Plate 3 (% conversion): 35.88%

SMILES: Cc1nc2ccccn2c(=O)c1CCN1CCC(C(=O)c2ccc(F)cc2)CC1 [Pirenperone]
% conversion [1]: 26.88%

SMILES: CN1CCN(CC(=O)N2c3ccccc3C(=O)Nc3cccnc32)CC1 [Pirenzepine dihydrochloride]
% conversion [1]: 38.08%
inhibition at 20 µM [2]: -4.73%

SMILES: Cc1ccc(=O)n(-c2ccccc2)c1 [Pirfenidone]
Plate 3 (% conversion) [3]: 40.30%

SMILES: O=C(O)/C=C\C(=O)O.c1cnc(N2CCN(Cc3ccc4c(c3)OCO4)CC2)nc1 [Piribedil maleate]
% inhibition (LOPAC Plate 4, compound at 20 uM): -4.83%
% conversion [1]: 38.12%

SMILES: COc1cc([C@@H]2c3cc4c(cc3[C@H](O)[C@H]3COC(=O)[C@H]23)OCO4)cc(OC)c1OC [Podophyllotoxin]
Plate 3 (% conversion): 35.15%

SMILES: CC(=O)[C@H]1CC[C@H]2[C@@H]3CC=C4C[C@@H](OS(=O)(=O)[O-])CC[C@]4(C)[C@H]3CC[C@]12C.[Na+] [Pregnenolone sulfate sodium]
% conversion: 34.01%
% inhibition (20 µM): 7.19%

The next lines start with the values.

Plate 3 (% conversion) [3]: 39.26%
SMILES: CN1C(C(=O)Nc2ccccn2)=C(O)c2ccccc2S1(=O)=O [Piroxicam]

% conversion [1]: 39.77%
SMILES: CCCN[C@H]1CCc2nc(N)sc2C1 [Pramipexole dihydrochloride]

Plate 3 (% conversion) [3]: 41.06%
SMILES: O=C(C1CCCCC1)N1CC(=O)N2CCc3ccccc3C2C1 (centres unmarked) [Praziquantel]

% conversion [1]: 34.08%
SMILES: COc1cc2nc(N3CCN(C(=O)c4ccco4)CC3)nc(N)c2cc1OC [Prazosin hydrochloride]

% conversion [1]: 24.92%
SMILES: CCCNC(C)C(=O)Nc1ccccc1C (centres unmarked) [Prilocaine hydrochloride]

% conversion [1]: 31.08%
SMILES: CCC1(c2ccccc2)C(=O)NCNC1=O [Primidone]

% conversion [1]: 38.98%
inhibition at 20 µM [2]: -7.36%
SMILES: CCN(CC)CCNC(=O)c1ccc(N)cc1 [Procainamide hydrochloride]

% conversion [1]: 34.46%
inhibition at 20 µM [2]: 5.88%
SMILES: CCN(CC)CCOC(=O)c1ccc(N)cc1 [Procaine hydrochloride]

% conversion [1]: 48.18%
SMILES: CN1CCN(CCCN2c3ccccc3Sc3ccc(Cl)cc32)CC1 [Prochlorperazine dimaleate]

Plate 3 (% conversion) [3]: 43.81%
SMILES: CC(=O)[C@H]1CC[C@H]2[C@@H]3CCC4=CC(=O)CC[C@]4(C)[C@H]3CC[C@]12C [Progesterone]

Plate 3 (% conversion) [3]: 27.88%
SMILES: CCCN(CCC)C(=O)C(CCC(=O)O)NC(=O)c1ccccc1 (centres unmarked) [Proglumide]

% conversion [1]: 39.62%
inhibition at 20 µM [2]: -9.23%
SMILES: CN(C)CCCN1c2ccccc2Sc2ccccc21 [Promazine hydrochloride]

Plate 3 (% conversion) [3]: 42.09%
SMILES: CC(CN1c2ccccc2Sc2ccccc21)N(C)C (centres unmarked) [Promethazine hydrochloride]

% conversion [1]: 33.19%
SMILES: CC(C)[N+](C)(CCOC(=O)C1c2ccccc2Oc2ccccc21)C(C)C [Propantheline bromide]

% conversion [1]: 44.67%
inhibition at 20 µM [2]: -24%
SMILES: CCC(=O)c1ccc2c(c1)N(CCCN(C)C)c1ccccc1S2 [Propionylpromazine hydrochloride]
